{
  "source": "paper PMC12575728",
  "about": "“Galactose-modified small molecule modulator targets RORα to enhance circadian rhythm and alleviate periodontitis-associated alveolar bone loss” (Bone Research, 2025)",
  "key": {"Kinetic solubility test": {"assay": "Kinetic solubility test", "assay_type": "physicochemical", "details": "water, 25 °C, kinetic from dmso stock", "from_the_text": "Solubility(μmol/L)=Areafiltered×DFfiltered/Areastd×DFstd×[std]×DFstd"}, "RORα": {"molecular_target": "T1, RORα (Homo sapiens, UniProt P35398)", "T1 construct": "HEK293T cells co-transfected with a full-length RORα gene and a luciferase reporter gene; expressed in transfected cells; host or cells: HEK293T", "T1 sequence (P35398 1-523)": "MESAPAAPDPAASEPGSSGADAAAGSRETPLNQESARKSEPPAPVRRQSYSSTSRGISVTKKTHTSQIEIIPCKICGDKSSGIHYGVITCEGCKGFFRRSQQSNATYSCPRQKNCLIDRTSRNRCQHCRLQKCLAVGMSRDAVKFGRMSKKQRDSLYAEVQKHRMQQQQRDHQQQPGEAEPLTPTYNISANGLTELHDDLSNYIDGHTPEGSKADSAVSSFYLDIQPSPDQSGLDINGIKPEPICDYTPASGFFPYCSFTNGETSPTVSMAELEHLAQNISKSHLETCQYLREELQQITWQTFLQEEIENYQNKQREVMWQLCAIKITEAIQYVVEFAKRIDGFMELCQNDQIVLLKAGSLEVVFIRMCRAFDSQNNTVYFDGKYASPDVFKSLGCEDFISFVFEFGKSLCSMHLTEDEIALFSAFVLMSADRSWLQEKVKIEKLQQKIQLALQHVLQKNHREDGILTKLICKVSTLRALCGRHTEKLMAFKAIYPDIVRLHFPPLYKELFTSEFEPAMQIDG", "assay": "Luciferase reporter assay (G6Pase or FGF21 promoter) in HEK293T cells cotransfected with RORα", "assay_type": "cell-based", "details": "HEK293T, RORα; for luminescence of G6Pase and FGF21 luciferase reporters: vs DMSO", "description": "HEK293T cells were transfected with Lipofectamine 8000 (ThermoFisher) strictly following the manufacturer’s instructions. Cotransfected HEK293T cells with RORα or RORγ plasmid and a reporter consisting of the G6Pase or FGF21 promoters upstream of a luciferase reporter gene. 500 ng plasmid DNA was transfected into each well of 24 well-plate 24 h after the transfection, DMSO or Gala-SR and SR1078 (5 µmol/L) was added and incubated for 24 h. The Lumicycle instrument detects luminescence and records the numerical value."}, "β-galactosidase": {"system": "β-galactosidase", "assay": "Hydrolysis of Gala-SR by β-galactosidase (MS)", "assay_type": "in vitro ADME", "details": "mass spectrometry"}, "BMAL1": {"system": "BMAL1", "assay": "BMAL1 immunofluorescence in synchronized U2OS cells", "assay_type": "cell-based, human", "details": "5 µmol/L", "description": "U2OS cells were seeded on coverslips and treated with drugs for 24 h. After treatment, the cells were washed 3 times with PBS and fixed with 4% paraformaldehyde at room temperature for 15 min. The cells were then permeabilized with 0.1% Triton X-100 (diluted in PBS) and blocked with 5% BSA (diluted in PBS) at room temperature for 30 min. Primary antibodies were incubated overnight at 4 °C. The next day, the cells were washed 3 times with PBST and incubated with Cy3-conjugated Affinipure Goat Anti-Rabbit IgG(H + L) secondary antibody (1:200) at room temperature for one hour, with DAPI added to stain the nuclei. After washing 3 times with PBST, images were captured using a laser confocal microscope (Nikon A1-Si)."}, "C57 mice": {"system": "C57 mice", "assay": "Mouse locomotor assay", "assay_type": "in vivo", "details": "10 mg/kg IP at ZT11, D:D, compared to DMSO", "description": "WT C57BL/6 J mice at the age of 2 months old were entrained under a 12-h /12-h […] at 24 °C for 2 weeks.[36] One week after mouse clock synchronization to the ambient light/dark cycle, SR1078, Gala-SR or dimethyl sulfoxide (DMSO) was dissolved in saline and intraperitoneally injected (10 mg/kg) into mice 1 h before light off (ZT11). […] SR1078, Gala-SR or DMSO was injected again 24 h later. After 2 weeks of continuous recording, locomotor activity was analyzed with ClockLab software (Actimetrics) following the procedures described previously34."}, "PER2::LUC mice": {"system": "PER2::LUC mice", "assay": "Real-time bioluminescence recording of PER2::LUC mice", "assay_type": "in vivo", "details": "10 mg/kg IP at ZT0", "description": "PER2::LUC mice at ages of 2–3 months-old were housed in 12:12 light-dark conditions for two weeks before the experiments.[33] Gala-SR and SR1078 (10 mg/kg) were dissolved in DMSO and I.P.injected into mouse at ZT0. After 1 h, D-luciferin was I.P. injected into mouse for another 0.5 h. Mice were then imaged on IVIS 673 Lumina III system and analyzed with live imaging software."}, "[1]": {"system": "periodontitis mice with circadian rhythm disorders", "assay": "Ligature-induced periodontitis in circadian rhythm disordered (jet lag) mice", "assay_type": "in vivo", "details": "for periodontal tissue destruction (HE staining): compared to DMSO-treated controls; for rhythmic expression of circadian genes in periodontal tissue: jet lag mice, 10 mg/kg IP daily for three weeks; for alveolar bone resorption (Micro-CT): jet lag periodontitis mice, 10 mg/kg IP daily, compared to DMSO; for IL-10-positive cell populations / NF-κB pathway mediators Tnf-α and Il-6: periodontal tissue; for TRAP-positive cell numbers (osteoclastic activity): relative to DMSO-treated periodontitis controls", "from_the_text": "Periodontitis has the highest incidence rate among all oral diseases and is a major cause of adult tooth loss. […] It is also reported that the inflammatory signaling pathways in periodontal tissue is over activated in periodontitis mice with circadian rhythm disorder.[40] Given this, we have substantial grounds to hypothesize that the restoration of circadian rhythms could potentially ameliorate periodontitis. According to our assumption, periodontal inflammation in circadian rhythm-disordered mice is more critical than in control mice under L:D conditions, resulting in a more severe alveolar bone resorption. Administration of Gala-SR and SR1078 is expected to restore the circadian rhythm, thereby alleviating the inflammation and reducing the alveolar bone absorption (Fig. 6a). […] The mice were initially subjected to a one-week L:D feeding regimen, followed by exposure to disordered conditions for four weeks. At the beginning of the third week, the mice received intraperitoneal injections of Gala-SR or SR1078 (10 mg/kg) or the equivalent amount of DMSO utilized to dissolve these modulators every day for three consecutive weeks. Mice without any treatment and mice treated with DMSO but kept in L:D condition were also set for controls. By the end of the fourth week, a ligature-induced periodontitis model was established as previously described,[39] and samples at different time points were collected one week later for subsequent tests (Fig. 6b).\nAlveolar bones were harvested from mice and fixed after removal of soft tissues. The bones were then scanned at a resolution of 9 μm using Micro-CT (SkyScan 1176, Bruker). Images were reconstructed and quantified using InstaRecon/NRecon Research Workplace software. Metrics such as bone volume/total volume, trabecular thickness, bone surface area/bone volume, trabecular number, trabecular separation, and buccal-lingual alveolar bone resorption were used to assess differences among the mice.\nMale C57BL/6 mice,[40] 2 months old, were housed under disrupted conditions for 4 weeks. From the third week, they were intraperitoneally injected with Gala-SR, SR1078, or DMSO for 3 weeks. In the fifth week, general anesthesia was administered via intraperitoneal injection of pentobarbital sodium (40 mg/kg), and a ligature was placed around the cervix of the maxillary second molar to establish the murine periodontitis model. Collect gingival tissue and liver tissue every 6 h continuously for a duration of 48 h."}},
  "data": [
    {"smiles": "O=C(Nc1ccc(C(OCO[C@@H]2O[C@H](CO)[C@H](O)[C@H](O)[C@H]2O)(C(F)(F)F)C(F)(F)F)cc1)c1ccc(C(F)(F)F)cc1", "note": "[Gala-SR]", "values": [
      {"measurement": "solubility kinetic at 2 h", "setting": "Kinetic solubility test", "value": 282, "unit": "µM"},
      {"measurement": "expression of G6Pase and FGF21 luciferase reporter genes compared to SR1078", "setting": "RORα; 5 μmol/L", "value": "substantially elevated expression"},
      {"measurement": "activation of luciferase reporters, with galactosidase inhibitor", "setting": "RORα; 5 μmol/L Gala-SR + β-galactosidase inhibitor, vs Gala-SR alone", "value": "significantly decreased compared to the original level"},
      {"measurement": "expression of G6Pase and FGF21 luciferase reporter genes, combined with galactosidase", "setting": "RORα; 5 μmol/L Gala-SR + β-galactosidase, vs Gala-SR alone", "value": "significantly enhanced expression"},
      {"measurement": "luminescence of G6Pase and FGF21 luciferase reporters", "setting": "RORα; 5 μmol/L", "value": "marked augmentation in the luminescence"},
      {"measurement": "hydrolysis upon addition of galactosidase (release of SR1078)", "setting": "β-galactosidase", "value": "hydrolysis of galactose on, Gala-SR occurred"},
      {"measurement": "expression of BMAL1 (immunofluorescence)", "setting": "BMAL1", "value": "enhance the expression of BMAL1"},
      {"measurement": "activity rhythm (amplitude) and total activity", "setting": "C57 mice", "value": "significantly increased"},
      {"measurement": "liver luciferase signal", "setting": "PER2::LUC mice", "value": "induced within 0.5 h of treatment"},
      {"measurement": "periodontal tissue destruction (HE staining)", "setting": "[1]", "value": "attenuated periodontal tissue destruction"},
      {"measurement": "rhythmic expression of circadian genes in periodontal tissue", "setting": "[1]", "value": "restored their rhythmic expression"},
      {"measurement": "alveolar bone resorption (Micro-CT)", "setting": "[1]", "value": "significantly reduced alveolar bone resorption"},
      {"measurement": "IL-10-positive cell populations", "setting": "[1]", "value": "markedly increased"},
      {"measurement": "NF-κB pathway mediators Tnf-α and Il-6", "setting": "[1]", "value": "significantly downregulated"},
      {"measurement": "TRAP-positive cell numbers (osteoclastic activity)", "setting": "[1]", "value": "marked reduction"}
    ]},
    {"smiles": "O=C(Nc1ccc(C(O)(C(F)(F)F)C(F)(F)F)cc1)c1ccc(C(F)(F)F)cc1", "note": "[SR1078, reference compound]", "values": [
      {"measurement": "solubility kinetic at 2 h", "setting": "Kinetic solubility test", "value": 4.15, "unit": "µM"},
      {"measurement": "luminescence of G6Pase and FGF21 luciferase reporters", "setting": "RORα; 5 μmol/L", "value": "marked augmentation in the luminescence"},
      {"measurement": "expression of BMAL1 (immunofluorescence)", "setting": "BMAL1", "value": "enhance the expression of BMAL1"},
      {"measurement": "activity rhythm (amplitude) and total activity", "setting": "C57 mice", "value": "significantly increased"},
      {"measurement": "liver luciferase signal", "setting": "PER2::LUC mice", "value": "induced within 0.5 h of treatment"},
      {"measurement": "periodontal tissue destruction (HE staining)", "setting": "[1]", "value": "attenuated periodontal tissue destruction"},
      {"measurement": "rhythmic expression of circadian genes in periodontal tissue", "setting": "[1]", "value": "restored their rhythmic expression"},
      {"measurement": "alveolar bone resorption (Micro-CT)", "setting": "[1]", "value": "significantly reduced alveolar bone resorption"},
      {"measurement": "IL-10-positive cell populations", "setting": "[1]", "value": "markedly increased"},
      {"measurement": "NF-κB pathway mediators Tnf-α and Il-6", "setting": "[1]", "value": "significantly downregulated"},
      {"measurement": "TRAP-positive cell numbers (osteoclastic activity)", "setting": "[1]", "value": "marked reduction"}
    ]}
  ]
}
